Results taken from patent US20220267380A1, “Glycopeptides Increasing Lipid Synthesis” (TFCHEM, priority 2019, published 2022).

Tested on: normal human dermal fibroblasts (NHDF)
Assay: Gene expression in NHDF, full transcriptome analysis with Affymetrix U219 microarray
Format: cell-based
Conditions: NHDF
Protocol: In the present study, the transcriptional effects (modulation of gene expression) of compounds 1, 2, 3 and 4 were evaluated on normal human dermal fibroblasts (NHDF) under basal conditions.
More specifically, the comparative analysis of the different transcriptomic profiles was performed using an Affymetrix GeneAtlas platform and the human “full transcriptome” U219 chip, which includes 36,000 transcripts and variants.
Fibroblasts were seeded in 24-well plates and cultured in culture medium for 24 hours. The medium was then replaced by assay medium and cells were incubated for further 24 hours. The medium was replaced by assay medium containing or not (control) the test compounds at different concentrations and the cells were preincubated for 24 hours. All experimental conditions were performed in triplicate. At the end of incubation, the culture supernatants were removed and the cells were washed in a phosphate buffered saline (PBS) solution and immediately frozen at −80° C.
Before RNA extraction, the replicates were pooled. Total RNA was extracted from each sample using TriPure Isolation Reagent® according to the supplier's instructions. The amount and quality of total RNA were evaluated for all samples using capillary electrophoresis (Bioanalyzer 2100, Agilent technologies). From each RNA, a labeled and amplified anti-sens RNA (aRNA) was obtained using GeneChip 3′IVT PLUS Kit (Affymetrix). For each labeled and amplified aRNA sample the profiles were evaluated before and after fragmentation using capillary electrophoresis (Bioanalyzer 2100, Agilent technologies). Hybridization of fragmented aRNA onto Affymetrix® U219 chip (36,000 transcripts and variants) was performed in the GeneAtlas™ fluidics Affymetrix® hybridization station for 20 hours at 45° C. U219 chip was analyzed using the GeneAtlas™ Imaging station (Affymetrix®—resolution 2 μm) to generate fluorescence intensity data.
Expression Console and Quality controls: data were normalized with the Expression Console (Affymetrix®) software using RMA algorithm. Then a quality control of the labeling and the hybridization was performed. Hybridization and labeling steps successfully passed the quality controls for these experiments.
Data reduction, Excel file description: once normalized with Expression Console, data were transferred into a Microsoft Excel® file in order to go further into data reduction.
Calculation and tools were added in order to rank and sort data, and finally to support data interpretation. Detection thresholds in terms of fold change were defined and applied on normalized data.
Results are considered and presented or commented per gene (and not probe). A probe set is a collection of probes designed to interrogate a given sequence of a gene. For data interpretation, the most important relative expression value obtained with one probe is considered to be representative of the corresponding gene. The file contains the following data: • Relative expression (RE) for each sample, • Fold change calculation, • Gene information.

N[C@@H](CCCCNCC(F)(F)[C@]1(O)O[C@H](CO)[C@H](O)[C@H](O)[C@H]1O)C(=O)O [Compound 3]
effect of treatment of NHDF on lipid synthesis (transcriptional): up regulation of lipids synthesis, including fatty acids, cholesterol or ceramides
Fold change, ACOT1///ACOT2 (10 mg/ml, 24 h, vs control): 2.02
Fold change, APOD (10 mg/ml, 24 h, vs control): 0.44
Fold change, DHCR7 (10 mg/ml, 24 h, vs control): 2.95
Fold change, FADS2 (10 mg/ml, 24 h, vs control): 2.20
Fold change, GBAP1 (10 mg/ml, 24 h, vs control): 2.45
Fold change, HACD1 (10 mg/ml, 24 h, vs control): 2.63
Fold change, HMGCS1 (10 mg/ml, 24 h, vs control): 2.18
Fold change, LRP8 (10 mg/ml, 24 h, vs control): 2.98
Fold change, MVD (10 mg/ml, 24 h, vs control): 2.80
Fold change, NCOR1 (10 mg/ml, 24 h, vs control): 0.44
Fold change, NEU1 (10 mg/ml, 24 h, vs control): 3.17
Fold change, NPC1 (10 mg/ml, 24 h, vs control): 2.45
Fold change, PHLDB2 (10 mg/ml, 24 h, vs control): 2.14
Fold change, PHYH (10 mg/ml, 24 h, vs control): 2.37
Fold change, PLA2G15 (10 mg/ml, 24 h, vs control): 2.01
Fold change, PLA2G16 (10 mg/ml, 24 h, vs control): 2.30
Fold change, PRKAB2 (10 mg/ml, 24 h, vs control): 0.35
Fold change, PTGDS (10 mg/ml, 24 h, vs control): 2.50
Fold change, SOAT1 (10 mg/ml, 24 h, vs control): 2.08
Fold change, SPHK1 (10 mg/ml, 24 h, vs control): 2.18
Fold change, SREBF1 (10 mg/ml, 24 h, vs control): 2.16
Fold change, TXNRD1 (10 mg/ml, 24 h, vs control): 2.22
Fold change, VAC14 (10 mg/ml, 24 h, vs control): 2.10
Fold change, SCD (10 mg/ml, 24 h, vs control, Affymetrix probe set 11715561_s_at): 4.60
Fold change, SCD (10 mg/ml, 24 h, vs control, Affymetrix probe set 11715562_x_at): 4.82
Fold change, SCD (10 mg/ml, 24 h, vs control, Affymetrix probe set 11715563_s_at): 4.79
Fold change, G6PD (10 mg/ml, 24 h, vs control, Affymetrix probe set 11716292_a_at): 2.00
Fold change, G6PD (10 mg/ml, 24 h, vs control, Affymetrix probe set 11716293_x_at): 2.04
Fold change, INSIG1 (10 mg/ml, 24 h, vs control, Affymetrix probe set 11716338_a_at): 2.36
Fold change, INSIG1 (10 mg/ml, 24 h, vs control, Affymetrix probe set 11716339_a_at): 2.78
Fold change, PPT1 (10 mg/ml, 24 h, vs control, Affymetrix probe set 11716533_a_at): 2.40
Fold change, LSS (10 mg/ml, 24 h, vs control, Affymetrix probe set 11717620_a_at): 2.41
Fold change, EBP (10 mg/ml, 24 h, vs control, Affymetrix probe set 11717859_a_at): 2.52
Fold change, GBA///GBAP1 (10 mg/ml, 24 h, vs control, Affymetrix probe set 11719908_a_at): 2.30
Fold change, GM2A (10 mg/ml, 24 h, vs control, Affymetrix probe set 11719921_s_at): 2.39
Fold change, GM2A (10 mg/ml, 24 h, vs control, Affymetrix probe set 11719923_at): 2.09
Fold change, HSD17B14 (10 mg/ml, 24 h, vs control, Affymetrix probe set 11720588_a_at): 2.17
Fold change, SERINC2 (10 mg/ml, 24 h, vs control, Affymetrix probe set 11721046_a_at): 2.54
Fold change, TPP1 (10 mg/ml, 24 h, vs control, Affymetrix probe set 11725032_a_at): 2.23
Fold change, ME1 (10 mg/ml, 24 h, vs control, Affymetrix probe set 11726265_at): 2.41
Fold change, LSS (10 mg/ml, 24 h, vs control, Affymetrix probe set 11731324_a_at): 3.12
Fold change, GBA///GBAP1 (10 mg/ml, 24 h, vs control, Affymetrix probe set 11736100_a_at): 2.69
Fold change, CHKA (10 mg/ml, 24 h, vs control, Affymetrix probe set 11736285_a_at): 2.53
Fold change, CHKA (10 mg/ml, 24 h, vs control, Affymetrix probe set 11736286_a_at): 2.73
Fold change, ASAH1 (10 mg/ml, 24 h, vs control, Affymetrix probe set 11740582_a_at): 2.18
Fold change, PPT1 (10 mg/ml, 24 h, vs control, Affymetrix probe set 11742107_a_at): 2.25
Fold change, ASAH1 (10 mg/ml, 24 h, vs control, Affymetrix probe set 11743547_a_at): 2.16
Fold change, PCYT2 (10 mg/ml, 24 h, vs control, Affymetrix probe set 11744044_s_at): 2.15
Fold change, FADS1 (10 mg/ml, 24 h, vs control, Affymetrix probe set 11745459_a_at): 3.04
Fold change, LPCAT3 (10 mg/ml, 24 h, vs control, Affymetrix probe set 11746281_a_at): 2.48
Fold change, LDLR (10 mg/ml, 24 h, vs control, Affymetrix probe set 11746974_a_at): 2.37
Fold change, GM2A (10 mg/ml, 24 h, vs control, Affymetrix probe set 11747178_x_at): 2.24
Fold change, PCYT2 (10 mg/ml, 24 h, vs control, Affymetrix probe set 11747322_s_at): 2.72
Fold change, LDLR (10 mg/ml, 24 h, vs control, Affymetrix probe set 11748045_x_at): 2.10
Fold change, SERINC2 (10 mg/ml, 24 h, vs control, Affymetrix probe set 11748053_x_at): 2.92
Fold change, TM7SF2 (10 mg/ml, 24 h, vs control, Affymetrix probe set 11748279_s_at): 2.25
Fold change, GBA///GBAP1 (10 mg/ml, 24 h, vs control, Affymetrix probe set 11748292_a_at): 2.58
Fold change, TPP1 (10 mg/ml, 24 h, vs control, Affymetrix probe set 11748341_a_at): 2.60
Fold change, TPP1 (10 mg/ml, 24 h, vs control, Affymetrix probe set 11748342_x_at): 2.34
Fold change, EBP (10 mg/ml, 24 h, vs control, Affymetrix probe set 11749332_x_at): 2.48
Fold change, ABHD4 (10 mg/ml, 24 h, vs control, Affymetrix probe set 11749343_a_at): 2.28
Fold change, ABHD4 (10 mg/ml, 24 h, vs control, Affymetrix probe set 11749376_a_at): 2.13
Fold change, ME1 (10 mg/ml, 24 h, vs control, Affymetrix probe set 11750913_a_at): 2.67
Fold change, GBA (10 mg/ml, 24 h, vs control, Affymetrix probe set 11750975_x_at): 2.34
Fold change, GBA///GBAP1 (10 mg/ml, 24 h, vs control, Affymetrix probe set 11751085_a_at): 2.84
Fold change, GBA (10 mg/ml, 24 h, vs control, Affymetrix probe set 11751086_x_at): 2.57
Fold change, GBA///GBAP1 (10 mg/ml, 24 h, vs control, Affymetrix probe set 11751098_a_at): 2.57
Fold change, DHCR24 (10 mg/ml, 24 h, vs control, Affymetrix probe set 11751337_a_at): 2.29
Fold change, DHCR24 (10 mg/ml, 24 h, vs control, Affymetrix probe set 11751338_x_at): 2.44
Fold change, G6PD (10 mg/ml, 24 h, vs control, Affymetrix probe set 11752486_a_at): 3.18
